Measurements: the supplement of paper PMC6045584

Assays:
Assay in all cases: area under dose-response curve of surviving fraction (unscaled, Aref=0) (surviving fraction x log10(nM)); higher = more resistant
Conditions in all cases: exposure time: 5 days; dose range 0.5-1000 nM
[1] = compound: C[C@H](CN(C)C)Oc1nc(Nc2cc3cccc(Cl)c3cn2)cnc1C#N
How it was run: (§1)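 Inhibitor was applied to tumour cell lines at eight concentrations (0.5 to 1000 nM) for five days in 384-well plates. Luminescence from CellTiter-Glo, scaled to DMSO-only wells, gave surviving fractions in three screens per line, and these were fitted by 3-parameter logistic regression with the drc R package. The area under the curve is an unscaled activity area. Aref was 0, and dose was on a log10 scale.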

[2] = compound: COc1cc2nccc(Oc3ccc(NC(=O)C4(C(=O)Nc5ccc(F)cc5)CC4)cc3)c2cc1OC [CABOZANTINIB]
How it was run: as §1

[3] = compound: COc1ccc(-c2cc3c(C)nc(N)nc3n([C@H]3CC[C@H](OCCO)CC3)c2=O)cn1
How it was run: as §1

[4] = compound: Cc1c(N)nc([C@H](CC(N)=O)NC[C@H](N)C(N)=O)nc1C(=O)N[C@H](C(=O)N[C@H](C)[C@@H](O)[C@H](C)C(=O)N[C@H](C(=O)NCCc1nc(-c2nc(C(=O)NCCC[S+](C)C)cs2)cs1)[C@@H](C)O)[C@@H](OC1OC(CO)C(O)C(O)C1OC1OC(CO)C(O)C(OC(N)=O)C1O)c1cnc[nH]1 [BLEOMYCIN]
How it was run: as §1

[5] = compound: C=CCn1c(=O)c2cnc(Nc3ccc(N4CCN(C)CC4)cc3)nc2n1-c1cccc(C(C)(C)O)n1 [MK-1775]
How it was run: as §1

[6] = compound: Cc1ccc(NC(=O)c2ccc(CN3CCN(C)CC3)cc2)cc1Nc1nccc(-c2cccnc2)n1 [IMATINIB]
How it was run: as §1

[7] = compound: Cn1c(=O)n(-c2ccc(C(C)(C)C#N)cc2)c2c3cc(-c4cnc5ccccc5c4)ccc3ncc21 [BEZ-235]
How it was run: as §1

[8] = compound: COc1cc2nccc(Oc3ccc(NC(=O)NC4CC4)c(Cl)c3)c2cc1C(N)=O [LENVATINIB]
How it was run: as §1

[9] = compound: Cc1cn(-c2cc(NC(=O)c3ccc(C)c(Nc4nccc(-c5cccnc5)n4)c3)cc(C(F)(F)F)c2)cn1 [NILOTINIB]
How it was run: as §1

[10] = compound: O=C(CCCCCCC(=O)Nc1ccccc1)NO [VORINOSTAT]
How it was run: as §1

[11] = compound: CC/C(=C(\c1ccc(O)cc1)c1ccc(OCCN(C)C)cc1)c1ccccc1 [AFIMOXIFENE]
How it was run: as §1

[12] = compound: CCc1cc(Nc2nccc(-c3c(-c4ccc(OC)c(C(=O)Nc5c(F)cccc5F)c4)nc4ccccn34)n2)c(OC)cc1N1CCC(N2CCN(S(C)(=O)=O)CC2)CC1
How it was run: as §1

[13] = compound: Cn1ncnc1[C@H]1c2n[nH]c(=O)c3cc(F)cc(c23)N[C@@H]1c1ccc(F)cc1 [BMN-673]
How it was run: as §1

[14] = compound: C[C@@H]1CN(CC(=O)Nc2ccc3c(c2)Cc2cccc(-c4cc(=O)cc(N5CCOCC5)o4)c2S3)C[C@H](C)O1
How it was run: as §1

Row | Test System | area under dose-response curve [1] | area under dose-response curve [2] | area under dose-response curve [3] | area under dose-response curve [4] | area under dose-response curve [5] | area under dose-response curve [6] | area under dose-response curve [7] | area under dose-response curve [8] | area under dose-response curve [9] | area under dose-response curve [10] | area under dose-response curve [11] | area under dose-response curve [12] | area under dose-response curve [13] | area under dose-response curve [14]
1 | MHM BONE | 3.43 | 3.23 | 2.79 | 3.06 | 3.12 | 3.51 | 2.85 | 3.4 | 3.6 | 3.28 | 3.46 | 3.29 | 3.2 | 3.5
2 | HT1080 SOFT TISSUE | 3.08 | 3.29 | 2.54 | 2.57 | 2.2 | 3.5 | 2.35 | 3.31 | 3.28 | 3.01 | 3.48 | 3.37 | 1.71 | 3.27
3 | HOS BONE | 3.05 | 3.24 | 2.46 | 3.03 | 2.77 | 3.43 | 2.52 | 3.38 | 3.43 | 3.28 | 3.46 | 3.27 | 3 | 3.29
4 | CAL120 BREAST | 3.04 | 3.04 | 2.16 | 2.66 | 2.62 | 3.08 | 2.06 | 3.14 | 3.5 | 2.69 | 3.29 | 3.17 | 2.16 | 3.33
5 | MDAMB134 BREAST | 2.31 | 3.19 | 2.33 | 2.52 |  | 3.48 | 2.79 | 3.62 | 2.75 | 2.92 | 3.63 |  | 3.21 | 2.76
6 | LNCAP PROSTATE | 2.72 | 3.11 | 1.49 |  | 2.42 | 3.3 | 1.95 | 3.21 | 3.62 | 2.63 | 3.37 | 2.98 | 1.43 | 4.03
7 | LM7 BONE | 3.17 | 3.43 | 2.32 | 2.46 | 2.34 | 3.59 | 2.77 | 3.27 | 3.1 | 3.26 | 3.53 | 3.23 | 1.78 | 3.09
8 | MDAMB361 BREAST | 2.21 | 2.85 | 2.3 | 2.67 | 2.29 | 2.84 | 2.44 | 2.97 | 2.19 | 2.51 | 2.82 | 3.05 | 2.66 | 2.33
9 | MCF7 BREAST | 2.75 | 2.91 | 1.93 | 2.65 | 2.74 | 3.28 | 2.35 | 3.12 | 3.12 | 2.74 | 2.96 | 2.85 | 2.58 | 3.09
10 | HU09 BONE | 2.89 | 2.66 | 1.71 | 2.58 | 2.34 | 2.91 | 2.26 | 2.42 | 2.76 | 3.08 | 3.44 |  | 2.02 | 3.39
11 | JIMT1 BREAST | 2.3 | 3.5 | 2.47 | 2.8 | 2.04 | 3.41 | 2.38 | 3.41 | 3.15 | 3.11 | 3.34 | 3.34 | 2.39 | 3.11
12 | JURKAT HAEMATOPOIETIC AND LYMPHOID TISSUE | 2.99 | 3.38 | 2.42 | 2.64 | 2.46 | 3.38 | 2.43 | 3.38 | 3.46 | 3.06 | 3.27 | 3.28 | 2.15 | 3.48
13 | CASKI CERVIX | 2.76 | 3.03 | 1.97 | 1.94 | 2 | 3.28 | 1.99 | 3.28 | 2.97 | 2.94 | 3.25 | 3.15 | 2.72 | 2.98
14 | MDAMB436 BREAST | 2.74 | 3.27 | 2.03 | 2.47 | 2.4 | 3.32 | 2.23 | 3.2 | 2.98 | 2.84 | 3.33 | 3.2 | 1.5 | 2.84
15 | HELA CERVIX | 3.28 | 3.33 | 2.88 | 3.15 | 2.7 | 3.58 | 3.17 | 3.67 | 3.53 | 3.3 | 3.54 | 3.49 | 3.22 | 3.72
16 | CHLA90 AUTONOMIC GANGLIA | 2.86 | 2.95 | 2.37 | 2.89 | 2.46 | 3.45 | 2.25 | 3.23 | 3.5 | 3.28 | 3.42 | 3.16 | 2.97 | 3.37
17 | NY BONE | 2.58 | 3.07 | 2.35 | 2.43 | 2.18 |  | 2.76 | 3.21 | 3.51 | 3.06 | 3.43 |  | 2.86 | 3.49
18 | SUM159 BREAST | 3.44 | 3.29 | 2.51 | 3.01 | 3.08 | 3.7 | 2.52 | 3.64 | 3.57 | 3.01 | 3.67 |  | 3.52 | 3.65

Row | Test System | area under dose-response curve [1] | area under dose-response curve [2] | area under dose-response curve [3] | area under dose-response curve [4] | area under dose-response curve [5] | area under dose-response curve [6] | area under dose-response curve [7] | area under dose-response curve [8] | area under dose-response curve [9] | area under dose-response curve [10] | area under dose-response curve [11] | area under dose-response curve [12] | area under dose-response curve [13] | area under dose-response curve [14]
19 | OS25HAL BONE | 3.06 | 3.05 | 2.12 | 2.85 | 2.36 | 3.47 | 2.66 | 3.19 | 3.17 | 3.21 | 3.51 | 3.27 | 2.71 | 3.38
20 | HCT15 LARGE INTESTINE | 3.27 | 3.2 | 2.38 | 2.34 | 3.01 | 3.74 | 2.4 | 3.67 | 3.52 | 3.26 | 3.52 | 3.39 | 2.22 | 3.44
21 | SCC47 HEADNECK | 3.17 | 3.26 | 2.79 | 2.59 | 2.55 | 3.94 | 2.85 | 3.62 | 3.44 | 3.47 | 4.16 | 3.42 |  | 3.53
22 | U2OS BONE | 2.9 | 3.26 | 2.54 | 3.02 | 2.46 | 3.59 | 2.68 | 3.24 | 3.59 | 3.23 | 3.56 | 3.38 | 2.8 | 3.54
23 | SKBR3 BREAST | 3.03 | 3.38 | 1.77 | 2.72 | 2.64 | 3.66 | 2.41 | 3.48 | 2.88 | 3 | 3.71 |  | 2.55 | 3.21
24 | CAL51 BREAST | 2.73 | 3.28 | 2.28 | 2.39 | 2.31 | 3.53 | 1.99 | 3.18 | 3.22 | 3.06 | 3.36 | 3.35 | 1.22 | 3.27
25 | OSHN BONE | 3.08 | 3.22 | 2.99 | 2.72 | 2.85 | 3.71 | 3.19 | 3.63 | 3.28 | 3.47 | 3.65 | 3.42 | 2.4 | 3.42
26 | VP229 BREAST | 3.45 | 3.43 | 2.08 | 2.61 | 2.75 | 4.06 | 2.64 | 4.16 | 3.75 | 3.08 | 3.71 | 3.66 | 3.22 | 3.29
27 | SIHA CERVIX | 3.45 | 3.04 | 2.34 |  | 2.93 | 3.68 | 2.36 | 3.63 | 3.47 | 3.58 | 3.74 | 3.53 | 2.87 | 3.5
28 | MDAMB231 BREAST | 3.05 | 3.22 | 2.27 | 2.82 | 2.54 | 3.24 | 2.28 | 3.24 | 2.86 | 3.11 | 3.31 | 3.23 | 2.49 | 3.03
29 | SYO1 SYNOVIAL | 2.54 | 2.68 | 1.95 | 1.65 | 2.27 | 3.02 | 2.23 | 2.56 | 2.99 | 3.02 | 3.24 | 3.07 | 0.997 | 3.18
30 | HUO3N1 BONE | 3.12 | 3 | 2.24 | 2.94 | 2.77 | 3.24 | 2.58 | 3.05 | 3.34 | 3.25 | 3.5 | 3.26 | 2.59 | 3.28
31 | H23 LUNG | 3.29 | 3.11 | 1.86 | 1.99 | 2.55 | 3.56 | 2.16 | 3.58 | 3.78 | 3.81 | 3.5 |  | 2.65 | 3.59
32 | ASKA SYNOVIAL | 2.79 | 3.68 | 2 | 2.57 | 2.32 | 3.79 | 2.61 | 3.69 | 3.26 | 3.14 | 3.82 | 3.91 | 1.83 | 3.87
33 | PCI30 HEADNECK | 2.74 | 3.08 | 2.34 | 2.41 | 2.58 | 3.49 | 2.54 | 3.61 |  | 3.21 | 3.49 | 3.27 | 2.82 | 3.24
34 | T47D BREAST | 3.29 | 3.4 | 2.22 | 2.92 | 2.97 | 3.66 | 2.71 | 3.63 | 3.49 | 3.15 | 3.17 | 3.46 | 2.5 | 3.37
35 | COLO320DM LARGE INTESTINE | 2.74 | 3.68 | 2.16 | 3.13 | 2.44 | 3.72 | 2.61 | 3.67 |  | 3.04 | 3.71 | 3.7 | 2.75 | 3.46
36 | HCC78 LUNG | 2.74 | 1.8 | 1.41 | 1.97 | 2.58 | 3.61 | 2.2 | 3.39 |  | 2.95 | 3.19 | 2.74 | 2.26 | 3.9
